Experimental data as given in patent US9957263B2, “Bromodomain inhibitors” (AbbVie Inc., priority 2013, dated 2018).

Columns and labels:
BRD4 (BDI_K57-E168) = BRD4 (BDI_K57-E168) (Homo sapiens (Human), UniProt O60885); assay: TR-FRET bromodomain binding assay, BRD4 first bromodomain; conditions: His-tagged BD1, Alexa647-labeled probe 100 nM
Outline: (§1)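 Affinity for each isolated His-tagged domain was measured as competition with a fluorescent Alexa647 BET-inhibitor probe in a TR-FRET format at pH 6.0, 1 h room temperature incubation. Ki values were calculated from fitted IC50s, probe Kd and probe level (100 nM BDI, 30 nM BDII).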

BRD4 (BDII_E352-M457) = BRD4 (BDII_E352-M457) (Homo sapiens (Human), UniProt O60885); assay: TR-FRET bromodomain binding assay, BRD4 second bromodomain; conditions: His-tagged BD2, Alexa647-labeled probe 30 nM
Outline: as §1

CN(C)CCCOc1ccc(CNc2cccc(Oc3ccc(S(C)(=O)=O)cc3-c3cn(C)c(=O)c4[nH]ccc34)c2)cc1 [Example 74, 4-{2-[3-({4-[3-(dimethylamino)propoxy]benzyl}amino)phenoxy]-5-(methylsulfonyl)phenyl}-6-methyl-1,6-dihydro-7H-pyrrolo[2,3-c]pyridin-7-one]
Ki (BRD4 (BDI_K57-E168)): 4.3 nM
Ki (BRD4 (BDII_E352-M457)): 1.4 nM

CC(=O)Nc1ccc(CN2CCC(Nc3ccc(S(C)(=O)=O)cc3-c3cn(C)c(=O)c4[nH]ccc34)CC2)cc1 [Example 87, N-{4-[(4-{[2-(6-methyl-7-oxo-6,7-dihydro-1H-pyrrolo[2,3-c]pyridin-4-yl)-4-(methylsulfonyl)phenyl]amino}piperidin-1-yl)methyl]phenyl}acetamide]
Ki (BRD4 (BDI_K57-E168)): 21 nM
Ki (BRD4 (BDII_E352-M457)): 34 nM

CCNC(=O)c1cc2c(-c3cc(S(=O)(=O)CC)ccc3Oc3c(C)cccc3CN3CCCS3(=O)=O)cn(C)c(=O)c2[nH]1 [Example 152, 4-[2-{2-[(1,1-dioxido-1,2-thiazolidin-2-yl)methyl]-6-methylphenoxy}-5-(ethylsulfonyl)phenyl]-N-ethyl-6-methyl-7-oxo-6,7-dihydro-1H-pyrrolo[2,3-c]pyridine-2-carboxamide]
Ki (BRD4 (BDI_K57-E168)): 2080 nM
Ki (BRD4 (BDII_E352-M457)): 36 nM

COCCOCC(=O)N1CCC(Nc2ccc(S(C)(=O)=O)cc2-c2cn(C)c(=O)c3[nH]ccc23)CC1 [Example 98, 4-[2-({1-[(2-methoxyethoxy)acetyl]piperidin-4-yl}amino)-5-(methylsulfonyl)phenyl]-6-methyl-1,6-dihydro-7H-pyrrolo[2,3-c]pyridin-7-one]
Ki (BRD4 (BDI_K57-E168)): 14 nM
Ki (BRD4 (BDII_E352-M457)): 20 nM

CCS(=O)(=O)c1ccc(Oc2ccc(Cl)cc2C#CCN2CCOCC2)c(-c2cn(C)c(=O)c3[nH]ccc23)c1 [Example 82, 4-[2-{4-chloro-2-[3-(morpholin-4-yl)prop-1-yn-1-yl]phenoxy}-5-(ethylsulfonyl)phenyl]-6-methyl-1,6-dihydro-7H-pyrrolo[2,3-c]pyridin-7-one]
Ki (BRD4 (BDI_K57-E168)): 39 nM
Ki (BRD4 (BDII_E352-M457)): 8.5 nM

CCS(=O)(=O)Nc1cc(-c2cn(C)c(=O)c3[nH]ccc23)c(Oc2ccc(F)cc2F)cc1C(=O)N(C)C [Example 10, 5-(2,4-difluorophenoxy)-2-[(ethylsulfonyl)amino]-N,N-dimethyl-4-(6-methyl-7-oxo-6,7-dihydro-1H-pyrrolo[2,3-c]pyridin-4-yl)benzamide]
Ki (BRD4 (BDI_K57-E168)): 72 nM
Ki (BRD4 (BDII_E352-M457)): 8.3 nM

Cn1cc(-c2cc(S(C)(=O)=O)ccc2Oc2cccc(C(=O)NCc3ccc(F)cc3F)c2)c2cc[nH]c2c1=O [Example 37, N-(2,4-difluorobenzyl)-3-[2-(6-methyl-7-oxo-6,7-dihydro-1H-pyrrolo[2,3-c]pyridin-4-yl)-4-(methylsulfonyl)phenoxy]benzamide]
Ki (BRD4 (BDI_K57-E168)): 18 nM
Ki (BRD4 (BDII_E352-M457)): 6 nM

Cn1cc(-c2cc(S(C)(=O)=O)ccc2Oc2cccc(NCc3ccc(F)cc3Cl)c2)c2cc[nH]c2c1=O [Example 72, 4-[2-{3-[(2-chloro-4-fluorobenzyl)amino]phenoxy}-5-(methylsulfonyl)phenyl]-6-methyl-1,6-dihydro-7H-pyrrolo[2,3-c]pyridin-7-one]
Ki (BRD4 (BDI_K57-E168)): 7.4 nM
Ki (BRD4 (BDII_E352-M457)): 4.1 nM

Cn1cc(-c2cc(S(C)(=O)=O)ccc2Oc2cccc(NS(=O)(=O)c3cccc(F)c3)c2)c2cc[nH]c2c1=O [Example 40, 3-fluoro-N-{3-[2-(6-methyl-7-oxo-6,7-dihydro-1H-pyrrolo[2,3-c]pyridin-4-yl)-4-(methylsulfonyl)phenoxy]phenyl}benzenesulfonamide]
Ki (BRD4 (BDI_K57-E168)): 5.4 nM
Ki (BRD4 (BDII_E352-M457)): 2 nM

CCS(=O)(=O)Nc1cc(-c2cn(C)c(=O)c3[nH]ccc23)c(Oc2ccc(F)cc2F)cc1CN1CCCCC1 [Example 3, N-[4-(2,4-difluorophenoxy)-5-(6-methyl-7-oxo-6,7-dihydro-1H-pyrrolo[2,3-c]pyridin-4-yl)-2-(piperidin-1-ylmethyl)phenyl]ethanesulfonamide]
Ki (BRD4 (BDI_K57-E168)): 88 nM
Ki (BRD4 (BDII_E352-M457)): 2.8 nM

Cn1cc(-c2cc(S(C)(=O)=O)ccc2Oc2cccc(NS(=O)(=O)c3cccc(OC(F)F)c3)c2)c2cc[nH]c2c1=O [Example 48, 3-(difluoromethoxy)-N-{3-[2-(6-methyl-7-oxo-6,7-dihydro-1H-pyrrolo[2,3-c]pyridin-4-yl)-4-(methylsulfonyl)phenoxy]phenyl}benzenesulfonamide]
Ki (BRD4 (BDI_K57-E168)): 7.8 nM
Ki (BRD4 (BDII_E352-M457)): 2.4 nM

CCNC(=O)c1cc2c(-c3cc(S(=O)(=O)CC)ccc3Oc3c(C)cccc3NCC3CC3)cn(C)c(=O)c2[nH]1 [Example 119, 4-[2-{2-[(cyclopropylmethyl)amino]-6-methylphenoxy}-5-(ethylsulfonyl)phenyl]-N-ethyl-6-methyl-7-oxo-6,7-dihydro-1H-pyrrolo[2,3-c]pyridine-2-carboxamide]
Ki (BRD4 (BDI_K57-E168)): 1510 nM
Ki (BRD4 (BDII_E352-M457)): 6.69 nM

Cn1cc(-c2cc(S(C)(=O)=O)ccc2Oc2cccc(NS(=O)(=O)c3ccc(S(C)(=O)=O)cc3)c2)c2cc[nH]c2c1=O [Example 54, N-{3-[2-(6-methyl-7-oxo-6,7-dihydro-1H-pyrrolo[2,3-c]pyridin-4-yl)-4-(methylsulfonyl)phenoxy]phenyl}-4-(methylsulfonyl)benzenesulfonamide]
Ki (BRD4 (BDI_K57-E168)): 3.2 nM
Ki (BRD4 (BDII_E352-M457)): 1.1 nM

CC(=O)Nc1ccc(CNc2cccc(Oc3ccc(S(C)(=O)=O)cc3-c3cn(C)c(=O)c4[nH]ccc34)c2)cc1 [Example 78, N-{4-[({3-[2-(6-methyl-7-oxo-6,7-dihydro-1H-pyrrolo[2,3-c]pyridin-4-yl)-4-(methylsulfonyl)phenoxy]phenyl}amino)methyl]phenyl}acetamide]
Ki (BRD4 (BDI_K57-E168)): 0.9 nM
Ki (BRD4 (BDII_E352-M457)): 0.6 nM

CCS(=O)(=O)c1ccc(Oc2ccc(F)cc2F)c(-c2cn(C)c(=O)c3[nH]c(-c4ccnn4-c4ccccc4)cc23)c1 [Example 117, 4-[2-(2,4-difluorophenoxy)-5-(ethylsulfonyl)phenyl]-6-methyl-2-(1-phenyl-1H-pyrazol-5-yl)-1,6-dihydro-7H-pyrrolo[2,3-c]pyridin-7-one]
Ki (BRD4 (BDI_K57-E168)): 6.09 nM
Ki (BRD4 (BDII_E352-M457)): 3.39 nM

Cn1cc(-c2cc(S(C)(=O)=O)ccc2Oc2cccc(C(=O)N3CCC(N4CCCC4)CC3)c2)c2cc[nH]c2c1=O [Example 24, 6-methyl-4-[5-(methylsulfonyl)-2-(3-{[4-(pyrrolidin-1-yl)piperidin-1-yl]carbonyl}phenoxy)phenyl]-1,6-dihydro-7H-pyrrolo[2,3-c]pyridin-7-one]
Ki (BRD4 (BDI_K57-E168)): 15 nM
Ki (BRD4 (BDII_E352-M457)): 12 nM

Cn1cc(-c2cc(S(C)(=O)=O)ccc2Oc2cccc(C(=O)N3CCC(C(F)(F)F)CC3)c2)c2cc[nH]c2c1=O [Example 31, 6-methyl-4-[5-(methylsulfonyl)-2-(3-{[4-(trifluoromethyl)piperidin-1-yl]carbonyl}phenoxy)phenyl]-1,6-dihydro-7H-pyrrolo[2,3-c]pyridin-7-one]
Ki (BRD4 (BDI_K57-E168)): 21 nM
Ki (BRD4 (BDII_E352-M457)): 11 nM

Cn1cc(-c2cc(S(C)(=O)=O)ccc2N[C@H]2CC[C@H](NCc3ccc4ccccc4c3)CC2)c2cc[nH]c2c1=O [Example 110, 6-methyl-4-[5-(methylsulfonyl)-2-({trans-4-[(naphthalen-2-ylmethyl)amino]cyclohexyl}amino)phenyl]-1,6-dihydro-7H-pyrrolo[2,3-c]pyridin-7-one]
Ki (BRD4 (BDI_K57-E168)): 1.1 nM
Ki (BRD4 (BDII_E352-M457)): 2.2 nM

CN(CC#N)C(=O)c1cccc(Oc2ccc(S(C)(=O)=O)cc2-c2cn(C)c(=O)c3[nH]ccc23)c1 [Example 32, N-(cyanomethyl)-N-methyl-3-[2-(6-methyl-7-oxo-6,7-dihydro-1H-pyrrolo[2,3-c]pyridin-4-yl)-4-(methylsulfonyl)phenoxy]benzamide]
Ki (BRD4 (BDI_K57-E168)): 21 nM
Ki (BRD4 (BDII_E352-M457)): 10 nM
